Tests used:
Foc TR4 chlamydospores = assay: In vitro efficacy of metam sodium on Foc TR4 chlamydospores (colony growth on PDA plates); format: cell-based, Fusarium oxysporum f. sp. cubense Tropical Race 4
Description: Foc TR4 chlamydospores were extracted from infested soil and incubated with a dilution series of metam sodium for 5 min and 60 min at room temperature. Thereafter, the samples were diluted 10× to get reduction of the treatment and sufficient dilution of chlamydospores to avoid lack of resolution when grown on plate. Aliquots of 100 μl were plated on PDA plates in duplicate and incubated for 3 days at 25° C. Plates were photographed and scored.

Cavendish banana plants = assay: Field trial: banana plant growth and development after metam sodium soil injection at 30 cm and 60 cm; format: in vivo, Musa (Cavendish banana)
Description: (§1) Metam Sodium Application. Metam sodium 510 SL (equivalent to 42% w/w) was applied to soil at the following doses: 0 liters per hectare (L/ha), 750 L/ha, 1500 L/ha, 2250 L/ha, 3000 L/ha.
(§2) Prior to injection, soil was prepared using a rototiller to break the soil structure from 0 cm to 80 cm deep, allowing for the smooth and even injection application by an injection machine. The soil was then leveled and made uniform, and the metam sodium was applied at two depths: 30 cm and 60 cm, using injection methods. The temperature was at a minimum of 10° C. and soil humidity was between 50 and 60% holding capacity, allowing the applied product to transform from metam sodium (liquid) to MITC (gas).
(§3) The application was made using an injection machine wherein the machine lowered shanks and began moving forward such that the shanks lowered to a depth of 60 cm and injectors applied the metam sodium into the soil. When the injection at 60 cm was complete, the process was repeated for the entire field at 30 cm. The treated soil in the field was then sealed using a packer roller (which was part of the injection machinery, located at the back end of the machine), after each application.
Plant Selection and Transplantation. Cavendish banana plants were used for this investigation. In order to avoid plants already contaminated by other soil, all plants were produced in vitro using art-recognized methods. Plants were transplanted into the field 14 days after the final soil reading was taken (21 days after treatment).
Data Gathering. Data were gathered at monthly intervals beginning three months after banana plants were transplanted. A total of three data collection sessions were conducted. Data including the number of leaves, plant height, and girth size were collected.

[1] = system: F. oxysporum f. sp. cubense; assay: Panama disease analysis of field soil samples after metam sodium injection (plating on Komada medium); format: in vivo, Fusarium oxysporum f. sp. cubense Tropical Race 4; settings: any of the treated groups; any day post application
Description: as §1, §2, §3
Soil Analysis. Soil samples were obtained at 20, 40, and 60 cm before application and every 24 hours beginning 48 hours after application, for seven days.
Plant Pathology Analysis. […]

[2] = 750 L/ha, six months after treatment
[3] = 1500 L/ha, six months after treatment
[4] = 2250 L/ha, six months after treatment
[5] = 3000 L/ha, six months after treatment

CNC(=S)S [metam sodium, sodium N-methyldithiocarbamate]
reducing the number of surviving chlamydospores, measured as growing colonies (Foc TR4 chlamydospores; 100× dilution, prolonged incubation (60 min vs 5 min)): more effective
efficacy on Foc TR4 colony growth (Foc TR4 chlamydospores; dilution of 10×, incubation time 5 minutes): effective
efficacy on Foc TR4 colony growth (Foc TR4 chlamydospores; dilution of 100×, 5 and 60 minutes): less effective
reduction in viability of Foc TR4 chlamydospores (Foc TR4 chlamydospores; first test, dilutions from 1000 up to 10×10^6-fold, 60 min): No significant reduction in viability
efficacy against Foc TR4 chlamydospores (Foc TR4 chlamydospores; in vitro conditions, dependent on high concentrations): effective against Foc TR4 chlamydospores
efficacy on chlamydospore survival (Foc TR4 chlamydospores; second test, 10× and 100× dilutions): (partially) effective
number of chlamydospores that survived (Foc TR4 chlamydospores; second test, dilutions of 1000× and more): did not affect the number of chlamydospores that survived
average girth size of banana plant, increase (Cavendish banana plants; 750 L/ha): ~1 cm
average height of banana plant, increase (Cavendish banana plants; 750 L/ha): ~5 cm
percent of plants at either shooting or bagging stage (Cavendish banana plants; [2]): 11%
percent of plants at shooting stage (Cavendish banana plants; [2]): 9%
plants reaching bagging stage (Cavendish banana plants; [2]): did not have a meaningful effect
average girth size of banana plant, increase (Cavendish banana plants; 1500-3000 L/ha): 4-6 cm
average height of banana plant, increase (Cavendish banana plants; 1500-3000 L/ha): 20-23 cm
percent of plants at either shooting or bagging stage (Cavendish banana plants; [3]): 28%
percent of plants at shooting stage (Cavendish banana plants; [3]): 10%
percent of plants at bagging stage (Cavendish banana plants; 1500 to 3000 L/ha, six months after treatment): 11-19%
percent of plants at either shooting or bagging stage (Cavendish banana plants; [4]): 27%
percent of plants at shooting stage (Cavendish banana plants; [4]): 17%
percent of plants at either shooting or bagging stage (Cavendish banana plants; [5]): 35%
percent of plants at shooting stage (Cavendish banana plants; [5]): 22%
average number of leaves, increase (Cavendish banana plants; regardless of dose applied (750-3000 L/ha), vs 0 L/ha): roughly 1.5 fold
soil contamination: Foc TR4 detection [1]: No Foc TR4 was detected
